Patent publication US20250235418A1, “Butyrate Analogues and Methods of Use for HIF Stabilization and Treatment of Bowel Disease” (THE REGENTS OF THE UNIVERSITY OF COLORADO, A BODY CORPORATE, priority 2022, published 2025)

How the values were obtained:
Assay type in all cases: cell-based
[1] = test system: HIF target genes in T84 cells; assay: real-time PCR of HIF target genes BNIP3 and CAIX in T84 cells; settings: 16h
Experimental: (A) Exposure of T84 cells to Veh, BA or MBA (5 mM, 16 h) induced HIF target gene expression of CAIX and BNIP3. […] (C) Non-targeting control and T84 HIF1b depleted cells were analyzed for HIF1b expression by western blotting, shown with a representative blot. Quantification of HIF1b decrease was performed using ACTB-normalized densitometry. qPCR data was analyzed by One-way ANOVA with Bonferroni for post hoc correction and presented as mean±S.E.M, **p<0.01, ***p<0.001, ****p<0.0001 of three independent experiments.
Following these findings, we then explored if the MBA-induced stabilization of HIF was reflected in the transcriptional regulation of target genes. We utilized real-time PCR to study the influence of MBA mediated HIF stabilization in the induction of established HIF targets, BNIP3 (cell survival) and CAIX (pH regulation).
Furthermore, to confirm MBA-induced HIF transcriptional activity, we quantified the induction of BNIP3 and CAIX by BA or MBA (5 mM, 16h) in lentiviral shRNA-mediated knockdown of HIF1β relative to non-targeting shRNA controls. […] These findings confirm that through MBA exposure, HIF is stabilized and it is transcriptionally active.

c2bbe cells = assay: epithelial barrier formation by transepithelial electrical resistance (TEER); settings: 5 mM
Experimental: Barrier development in Caco-2 cells treated with Veh, BA or […] (5 mM); n=6. Data analyzed by Two-way ANOVA with Dunnett for post hoc correction and presented as mean±S.E.M, *p<0.05 **p<0.01, ***p<0.001, #BA, *MBA compared to veh in two independent experiments.
TEER of C2bbe cells exposed to 5 mM butyrate derivatives.
Therefore, we decided to study the effect of various butyrate derivatives in barrier function; in fact, sodium butyrate is an established pro-barrier factor. We studied epithelial barrier integrity through measurement of transepithelial electrical resistance (TEER), a typical assay for the quantitation of epithelial barrier strength. IEC c2bbe were exposed to butyrate derivatives (all at 5 mM) and TEERS were measured daily.

HIF1α in T84 cells = assay: HIF1α immunoblot in T84 cells (MBA vs BA); settings: T84 cells
Experimental: (A) Structures of butyrate derivatives investigated in initial screen for HIF stabilization. Immunoblot of HIF1a protein levels in Caco-2 cells (B) and T84 cells (C) exposed to veh (HBSS+), […], or 5 mM butyrate derivatives for 6h. (D) Dose response study of HIF1a accumulation in T84 cells treated with decreasing concentrations of MBA and BA for 6 h.
(A) Immunoblots of HIF1a protein over time after exposure of T84 cells to 5 mM BA and MBA. (B) Mesoscale assay of HIF1a protein over time in caco-2 cells treated with 5 mM MBA compared to veh. (C) HIF1a and HIF target (BNIP3) protein in caco-2 cells exposed to veh (HBSS+), […] or 5 mM MBA. Data are presented as mean+S.E.M, *p<0.05, **p<0.01, ***p<0.001.
Endogenous and non-endogenous butyrate derivatives with specifically chosen functional groups at different positions within the small molecule and assess their effects on HIF stabilization (FIG. 21A). To study a small library of butyrate derivatives we employed an electrochemiluminescence based assay to quantify HIF1α levels using the Meso Scale Discovery (HIF1α MSD assay, http://www.mesoscale.com) technology. Similar to the sandwich enzyme-linked immunosorbent assay (ELISA), this technology captures and detects HIF1α protein using two specific antibodies but utilizes electrochemiluminescence-based signal generation and detection. Using lysates from intestinal epithelial cells (IECs) caco-2 and T84 exposed to a physiological relevant concentration of 5 mM butyrate derivatives for 4h, this assay was employed to determine HIF1α protein concentration. A bona-fide and potent PHD2 inhibitor (IOX4) was used to stabilize HIF1α as a positive control. Various butyrate derivatives increased HIF1α relative concentration in both cell lines compared to low signals detected in untreated lysates. […] We decided to focus on this interesting butyrate derivative for further studies.
To elucidate the effectiveness of MBA to stabilize HIF1α over time and possibly shine light on how quickly it can be metabolized in-vitro, time-course studies where performed between BA and MBA, IOX4 was used as a positive control. […] Employing the HIF1α MSD assay, we screened for various timepoints in caco-2 cell lysates exposed to MBA (5 mM). […] BNIP3 is involved in cell survival and is a known HIF1α target that is induced through chemical stabilization of HIF or hypoxia. BNIP3 promoter comprises a functional hypoxia response element (HRE) and can be activated by HIF1α.[5] Parallel to our HIF stabilization time course studies, we wanted to assess the transcriptional activity of the stabilized protein over time.

CCCC(=O)O [Butyrate, Butyric acid]
induction of HIF target genes BNIP3 and CAIX ([1]; T84, 5 mM): significant induction | induction of BNIP3 and CAIX in cells lacking HIF1β ([1]; T84 HIF1β shRNA knockdown, 5 mM): complete loss of induction | barrier integrity over the course of the experiment (c2bbe cells): lose the integrity of their barrier | HIF1α stabilization over time (immunoblot) (HIF1α in T84 cells; 5 mM BA and MBA, IOX4 positive control): no longer stabilized at 48h | dose response of HIF1α accumulation (HIF1α in T84 cells; decreasing concentrations, 6 h): quickly becomes ineffective
